Each structure is given as a SMILES string. Where only a bound is given, the exact number is not on record here.

As usually defined, the EC50 is the concentration giving half of the maximal effect. A low value points to higher potency in that assay. The term inhibition denotes the share of the control response that was lost under treatment. For orientation: viability means a per cent measure of how many cells are alive, often set against a control.

For one series, the system named is DENV4 (c0036). Briefly: Antiviral efficacy (EC50) in virus infected LLC/MK2 cells, plaque assay. In kind it is cell-based, Dengue virus.
Series [1] deals with BHK-21/DENV2 replicon cells. The experiment in a line: Replicon inhibition assay, RT-qPCR of replicon RNA. The series is classed as cell-based. To be noted: Dengue virus, DENV2, BHK-21, 72 h, read-out: inhibition of DENV2 replicon replication. As to the method: Next, we studied FV13 inhibition in a DENV2 replicon replication system to investigate whether translation and replication could be implicated as drug targets. BHK-21/DENV2 replicon cells[28] were treated with 5 and 10 µM FV13 and incubated for 72 h before measuring replication efficiency by quantifying replicon RNA. Ribavirin, a known dengue virus replication inhibitor[29], was used as a positive control.
After supernatant collection, the remaining cells in experimental plates were extracted for viral RNAs using TRIzol reagent (Invitrogen, California, USA) according to the manufacturer’s protocol. The samples were loaded into the Direct-zol™ RNA MiniPrep (Zymo research, California, USA) and quantified by Nanodrop spectrophotometry (Eppendorf, New York, USA). The RT-qPCR was performed with a Step-OnePlus Real-Time PCR System (Applied Biosystems, California, USA.) with 1 × Power SYBRGreen PCR Master Mix, 400 nM each of capsid primers[40] or 250 nM of NS1 primers[41] and 0.1 µg of total RNA. The reactions were then cycled at 48 °C 30 min and 95 °C 10 min, followed by 45 cycles of 95 °C for 20 s (denaturation), 55 °C for 30 s (annealing), 72 °C for 30 s (extension). Each sample was analyzed in triplicated and results were confirmed by two independent experiments.
BHK-21 cells expressing a DENV2 replicon (BHK-21/DENV2) were maintained in minimal essential medium (MEM) supplemented with 10% fetal bovine serum (FBS), and 0.3 mg/ml G418 (Bio Basic Canada, Ontario, Canada). The protocol was adapted from Boonyasuppayakorn et al., 2014 [28]. Briefly, cells (5 × 10^4/well) were seeded into 24-well plates and were incubated for 1 day at 37 °C in a humidified CO2 chamber followed by addition of the compounds in 1% DMSO at final concentrations of 5 µM and 10 µM. DMSO (1%) alone was used as the no-inhibitor control (0% inhibition) and the reference compound was ribavirin (TargetMol, Massachusetts, USA) at a final concentration of 5 µM or 10 µM. Cells were incubated at 37 °C for 72 h and lysed to quantify DENV2 replicons by RT-qPCR. Data were reported as percent inhibition compared with ribavirin, as a reference compound and DMSO, 0% inhibition. Results were confirmed by three independent experiments.
A general note: Replicon systems follow genome replication, usually without infectious particles.

A short description of series [2]: Cytotoxicity study, summary statements over human-derived cell lines. In kind it is cell-based. The settings on record: HepG2 and HEK-293 cells, THP-1, HepG2, HEK-293, 10 and 25 µM, Table 2. As to the method: (§1) The cytotoxicity of active compounds was tested on LLC-MK2, Vero, THP-1, HEK-293, HepG2 and C6/36 cell lines. Each cell line was seeded at 1 × 10^4 cells per well in 96-well plates and incubated overnight. The compounds were added at the indicated concentrations and the cells were incubated for 48 h, unless indicated otherwise. Cell viability was analyzed using CellTiter 96® AQueous One Solution Cell Proliferation Assay kit (Promega, Wisconsin-Madison, USA) according to manufacturer’s protocol. The plate was read at the A 450 in a VICTORTM × 3 microplate reader (PerkinElmer, Massachusetts, USA). Percent cell viability in compound-treated wells was calculated using reference DMSO-treated cells as a 100% cell viability control. The CC50 values of LLC/MK2 cells were calculated using nonlinear regression analysis. Results were reported as means and standard error of the means (SEM) of CC50 values of three independent experiments in which each drug concentration was tested in triplicate.

In another series the test system is ZIKV (SV0010/15). The experiment in a line: Antiviral efficacy (EC50) in virus infected LLC/MK2 cells, plaque assay. In kind it is cell-based, Zika virus.
Series [3] can be described thus: Cytotoxicity study (CellTiter 96 AQueous One) in THP-1 cells. The series is classed as cell-based. To be noted: human, THP-1 cells, read-out: Cells viability (%, means ± SEM) THP-1. As to the method:
as §1

The nature of series [4]: Cytotoxicity study (CellTiter 96 AQueous One) in HepG2 cells. The series is classed as cell-based. The settings on record: human, HepG2 cells, read-out: Cells viability (%, means ± SEM) HepG2. As to the method: as §1
A further series has as its system DENV2 NGC. The experiment in a line: Primary screening: compounds added to DENV2 infected LLC/MK2 cells, plaque titration of culture supernatants. In kind it is cell-based, Dengue virus. As to the method: In this study, we selected 8 flavonoid derivatives (Fig. 1) and tested their effect on DENV2 NGC in a LLC/MK2 cell-based system. Briefly, the compounds at final concentrations of 10 μM and 25 μM in DMSO were added to DENV2 infected LLC/MK2 cells and the effect on viral particle production was measured by plaque titration of the culture supernatants. […] We also tested cytotoxicity of FV13, FV14, and CH1 to verify the viral inhibition in LLC/MK2 cells (Table 2). The viabilities of FV13 treated cells were 81.00 ± 2.69% and 59.40 ± 2.42%, at 10, and 25 µM respectively, whereas the values for FV14 treated cells were 60.24 ± 3.31% and 60.86 ± 3.57%. We also examined Vero, THP-1, HepG2, and HEK-293 cell viabilities in the presence of selected compounds (Table 2).
LLC/MK2 cells were seeded at 5 × 10^4 cells into each well of 24-well plate and incubated overnight at 37 °C under 5% CO2. Cells were infected with DENV2 at the multiplicity of infection (M.O.I.) of 0.1, unless indicated otherwise, for 1 h with gentle rocking every 15 min. Cells were washed with phosphate buffer saline (PBS) and incubated with 1 ml of MEM medium supplemented with 1% FBS as previously described. The compounds were prepared in dimethylsulfoxide (DMSO) at the indicated concentrations before addition to viral infected cells. Supernatants were collected after 5 day incubation and analyzed by plaque titration. In primary screening, DMSO-treated cells served as the untreated control. Compounds that inhibited virus production by ≥90% were selected for further characterization.

The subject of a further series is DENV3 (16562). The experiment in a line: Antiviral efficacy (EC50) in virus infected LLC/MK2 cells, plaque assay. The series is classed as cell-based, Dengue virus.
Where [5] appears, read: Dengue virus, DENV2, LLC-MK2, read-out: DENV2 inhibition (%, means ± SEM).

Description for DENV3 (16562): (§2) Compound at various concentrations were added to virus infected LLC/MK2 cells and viral titers were accessed by plaque titration of supernatants as previously described.
(§3) LLC/MK2 cells were seeded at 5 × 10^4 cells into each well of 24-well plate and incubated overnight at 37 °C under 5% CO2. Cells were infected with DENV2 at the multiplicity of infection (M.O.I.) of 0.1, unless indicated otherwise, for 1 h with gentle rocking every 15 min. Cells were washed with phosphate buffer saline (PBS) and incubated with 1 ml of MEM medium supplemented with 1% FBS as previously described. The compounds were prepared in dimethylsulfoxide (DMSO) at the indicated concentrations before addition to viral infected cells. Supernatants were collected after 5 day incubation and analyzed by plaque titration[9].
(§4) Compounds were prepared in DMSO at 8–12 different concentrations and added to virus infected cells as previously described. Supernatants were collected and the EC50 values were calculated from nonlinear regression analysis.
Description for DENV4 (c0036): as §2, §3, §4
Description for ZIKV (SV0010/15): as §2, §3, §4

`O=c1cc(-c2ccccc2)oc2c(Br)c(O)c(Br)c(O)c12` [FV13, 6,8-dibromo-5,7-dihydroxyflavone]: the “S.I. Selectivity index (CC50/EC50)” value in the series on DENV4 (c0036) (DENV4 (c0036), CC50 in LLC/MK2) turned out to be 25.12; in the series on ZIKV (SV0010/15) (CC50 in LLC/MK2), 27.02; in the series on DENV3 (16562) (DENV3 (16562), CC50 in LLC/MK2), 19.22. The EC50 in the series on DENV4 (c0036) (Dengue virus, DENV4, LLC-MK2) turned out to be 1780 ± 720 nM; with ZIKV (SV0010/15) (Zika virus, LLC/MK2, plaque assay in 24-well plates), 1650 ± 860 nM; with DENV3 (16562) (Dengue virus, DENV3, LLC-MK2), 2320 ± 1460 nM. Also, in series [1], the inhibition at 5 µM amounted to 83.4 ± 2.04%. In addition, the inhibition at 10 µM came to 82.7 ± 4.01% in series [1] and 99.45 ± 0.48% in the series on DENV2 NGC (setting [5]). Further, in series [2], the viability at 48 h was over 80%. In addition, the values for the viability at 48 h, 10 µM in series [3] (10 μM) and in series [4] (10 μM) were over 100% and 85.8 ± 4.7%, respectively. In addition, the viability at 48 h, 25 µM in series [3] (25 μM) worked out at 86.9 ± 2.1%; in series [4] (25 μM), 84.6 ± 2.79%. Moreover, the “inhibition of virus production” value with DENV2 NGC (10 μM and 25 μM, summary of Table 1) was over 99%. In addition, in the series with DENV2 NGC (setting [5]), the inhibition at 25 µM worked out at 99.65 ± 0.41%.

(Values after publication PMC5651866, “Halogenated Chrysins Inhibit Dengue and Zika Virus Infectivity” (Scientific Reports, 2017).)
